From ChEMBL document CHEMBL1201862, “PubChem BioAssay data set” (2004) come the findings set out here.

SMILES strings stand for the structures.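 A five-concentration, 48-hour dose response in 96-well plates underlies each endpoint, interpolated linearly between surrounding concentrations. GI50: concentration for 50% inhibition of growth.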 Active and inactive are the calls of the source. Rule as the data show it: active = GI50 up to about 1.1 µM and inactive = higher.

Among the test systems are OVCAR-8; HOP-92; COLO 205; A498; SK-MEL-2; SR; HCT-15; HL-60; NCI-H23; SF-268; HCT-116; K562; CCRF-CEM; IGROV-1; RXF 393; NCI/ADR-RES; MDA-MB-435; PC-3; MDA-MB-231.
Test in all cases: NCI-60 cell line screen, 48 h

In the case of `CC(C)Cc1ccc(C(C)/C=C2\CCC(CN3CCCC3)C2=O)cc1` (configuration not stated), the GI50 with OVCAR-8 was 7.01 µM (inactive); in the assay on HOP-92, 19.1 µM (inactive); in the assay with COLO 205, 4.5 µM (inactive); in the assay with A498 it was 21.6 µM (inactive); with SK-MEL-2 it was 17.7 µM (inactive); with SR, 1.76 µM (inactive). Also, the GI50 in the assay on HCT-15 was 4.06 µM; with HL-60, 1.89 µM (inactive); in the assay on NCI-H23 it was 11.5 µM (inactive); with SF-268, 3.98 µM (inactive); with HCT-116, 4.13 µM (inactive); with K562 it was 3.91 µM (inactive). In addition, the figures for the GI50 in the assay on CCRF-CEM, in the assay with IGROV-1 and in the assay with RXF 393 were 2.22 µM (inactive), 5.74 µM (inactive) and 18.8 µM (inactive), respectively.
As to `COc1ccc(C2Oc3cc(OC)c(OC)cc3C2CCl)cc1OC` (configuration not stated), the GI50 in the assay with OVCAR-8 is > 100 µM (inactive); with HOP-92, 74.3 µM (inactive); with COLO 205 it was > 100 µM (inactive); in the assay with A498 it was 73.5 µM (inactive); with SK-MEL-2, > 100 µM (inactive); in the assay on SR, > 100 µM (inactive). For the same compound, the GI50 in the assay on HCT-15 is > 100 µM; in the assay with HL-60, > 100 µM (inactive); in the assay with NCI-H23, > 10 µM (inactive); in the assay on SF-268, > 100 µM (inactive); in the assay on HCT-116 it was > 100 µM (inactive); with K562, > 100 µM (inactive). Moreover, in the assay on CCRF-CEM, the GI50 was > 100 µM (inactive).
As to `O=C(Oc1ccc(Cl)cc1[N+](=O)[O-])c1ccccc1`, the GI50 in the assay on OVCAR-8, in the assay with HOP-92, in the assay with COLO 205, in the assay with A498, in the assay with SK-MEL-2 and with SR was > 100 µM (inactive) throughout. Also, the GI50 is > 100 µM with HCT-15; 65.6 µM (inactive) in the assay with HL-60; 69.2 µM (inactive) with NCI-H23; > 100 µM (inactive) in the assay on SF-268; > 100 µM (inactive) with HCT-116; > 100 µM (inactive) in the assay with K562. The GI50 in the assay on CCRF-CEM was 73.6 µM (inactive); with IGROV-1, > 100 µM (inactive); in the assay with RXF 393 it was 24.1 µM (inactive).
`CC(C)=CC1C(C(=O)O)C1(C)C` (configuration not stated) [CHRYSANTHEMIC ACID]: the GI50 with OVCAR-8 was > 750 µM (inactive); in the assay on HOP-92, 520 µM (inactive); in the assay with COLO 205, > 750 µM (inactive); in the assay on A498, 24 µM (inactive); in the assay on SK-MEL-2, > 750 µM (inactive); with HCT-15 it was > 750 µM. Besides, the GI50 in the assay with HL-60, in the assay with NCI-H23, with SF-268, with HCT-116, with K562 and in the assay with CCRF-CEM was > 750 µM (inactive) throughout. Further, the GI50 in the assay with NCI/ADR-RES, with IGROV-1 and with RXF 393 was > 750 µM (inactive) in each case.
In the case of `CNC(=O)OCc1c(CO)nc(SC)n1C`, the GI50 with OVCAR-8 is > 100 µM (inactive); with HOP-92 it was > 100 µM (inactive); in the assay with COLO 205, > 100 µM (inactive); in the assay with A498, > 100 µM (inactive); with SK-MEL-2, > 100 µM (inactive); in the assay on HCT-15 it was > 100 µM. The GI50 in the assay on HL-60, in the assay with NCI-H23, with SF-268, with HCT-116, in the assay on K562 and with CCRF-CEM was > 100 µM (inactive) each time. Further, the GI50 with NCI/ADR-RES, with IGROV-1 and in the assay on RXF 393 was > 100 µM (inactive) in each case.
Turning to `CC(=O)N/C(=C\c1cccc([N+](=O)[O-])c1)c1nc2ccc3c(c2[nH]1)C(=O)c1ccccc1C3=O`, the GI50 in the assay with OVCAR-8 was 43.6 µM (inactive); with HOP-92, > 50.4 µM (inactive); in the assay with COLO 205, > 78.2 µM (inactive); in the assay with A498 it was 22.8 µM (inactive); with SK-MEL-2, 50.2 µM (inactive); in the assay with SR it was 6.97 µM (inactive). Moreover, the GI50 in the assay on HCT-15 was 13.9 µM; with HL-60, 2.76 µM (inactive); in the assay on NCI-H23, 39.8 µM (inactive); in the assay with SF-268 it was 13.6 µM (inactive); with HCT-116, 17.9 µM (inactive); in the assay on K562, 23.9 µM (inactive). Further, the GI50 in the assay on CCRF-CEM was 0.885 µM (active); in the assay with IGROV-1, 10.4 µM (inactive); in the assay on RXF 393, 22.8 µM (inactive).
With `Cc1cccc(NC(=O)c2c(N)[n+]([O-])c3ccccc3[n+]2[O-])c1`, the GI50 is 10.2 µM (inactive) with OVCAR-8; 15.2 µM (inactive) in the assay on HOP-92; 13.3 µM (inactive) in the assay on COLO 205; 16.1 µM (inactive) in the assay with A498; 7.76 µM (inactive) in the assay on SK-MEL-2; 10.9 µM (inactive) in the assay on SR. Also, the GI50 was 8.73 µM (inactive) in the assay with HL-60; 9.68 µM (inactive) in the assay on NCI-H23; 7.28 µM (inactive) in the assay with SF-268; 7.69 µM (inactive) with HCT-116; 5.68 µM (inactive) in the assay on K562; 4.68 µM (inactive) in the assay on CCRF-CEM. The GI50 in the assay on IGROV-1 was 5.11 µM (inactive); in the assay on RXF 393, 4.03 µM (inactive).
On to `COc1ccc(O)c(C#N)c1C#N.COc1ccc(OC)c(C#N)c1C#N`, for which the GI50 was > 100 µM (inactive) in the assay with OVCAR-8; > 100 µM (inactive) in the assay with HOP-92; > 100 µM (inactive) in the assay with COLO 205; > 100 µM (inactive) in the assay with A498; > 100 µM (inactive) in the assay on SK-MEL-2; > 100 µM with HCT-15. Besides, the GI50 in the assay with HL-60, in the assay on NCI-H23, in the assay with SF-268, in the assay with HCT-116, in the assay on K562 and in the assay on CCRF-CEM was > 100 µM (inactive) throughout. The GI50 in the assay with NCI/ADR-RES, in the assay with IGROV-1 and with RXF 393 was > 100 µM (inactive) throughout.
With `CN(CC#N)C1CCCC[C@H]1O` (some centres not stated), the GI50 with OVCAR-8 was > 100 µM (inactive); with HOP-92, > 100 µM (inactive); in the assay on COLO 205 it was > 100 µM (inactive); with A498, > 100 µM (inactive); in the assay with SK-MEL-2, > 100 µM (inactive); in the assay with SR, 46.6 µM (inactive). The GI50 in the assay with HCT-15 is > 100 µM; with HL-60, > 100 µM (inactive); in the assay with NCI-H23, > 100 µM (inactive); in the assay on SF-268, > 100 µM (inactive); in the assay with HCT-116, > 100 µM (inactive); with K562, > 100 µM (inactive). For the same compound, the GI50 in the assay on CCRF-CEM, in the assay on IGROV-1 and in the assay with RXF 393 was > 100 µM (inactive) throughout.
For `COc1cc2ccc(CC#N)cc2cc1OC`, the GI50 was > 100 µM (inactive) with OVCAR-8; 71.1 µM (inactive) in the assay on HOP-92; > 100 µM (inactive) in the assay on A498; > 100 µM (inactive) in the assay with SK-MEL-2; > 100 µM (inactive) in the assay with SR; > 100 µM (inactive) with HL-60. Besides, the GI50 in the assay with NCI-H23, in the assay on SF-268, with K562, with CCRF-CEM and in the assay with RXF 393 was > 100 µM (inactive) throughout.
`CCc1ccccc1/N=N/C(=O)NNc1ccccc1CC`: the GI50 in the assay on OVCAR-8 is 15.2 µM (inactive); with A498, 18.7 µM (inactive); in the assay on SK-MEL-2, 17.5 µM (inactive); in the assay on SR, 23.2 µM (inactive); in the assay with MDA-MB-435, 24.4 µM (inactive); with HCT-15, 18.5 µM. Besides, the GI50 in the assay on HL-60 is 23.2 µM (inactive); in the assay with NCI-H23, 19.9 µM (inactive); in the assay on SF-268, 17.3 µM (inactive); in the assay with PC-3, 16.4 µM (inactive); in the assay on HCT-116, 15.3 µM (inactive); in the assay on K562, 26.1 µM (inactive). Further, the GI50 with CCRF-CEM was 25.3 µM (inactive); with IGROV-1, 11 µM (inactive); in the assay with MDA-MB-231, 21.3 µM (inactive).
Turning to `N#Cc1cccc(/C=N/N/C(N)=N/O)c1`, the GI50 in the assay on OVCAR-8 was 78.3 µM (inactive); in the assay with HOP-92, 39.4 µM (inactive); in the assay with COLO 205, > 100 µM (inactive); in the assay on A498 it was 33.3 µM (inactive); in the assay with SK-MEL-2, 72.6 µM (inactive); in the assay with SR, 48.1 µM (inactive). Further, the GI50 was 68.5 µM in the assay on HCT-15; 15.2 µM (inactive) with HL-60; 97.9 µM (inactive) in the assay on NCI-H23; 26.3 µM (inactive) in the assay with SF-268; > 100 µM (inactive) with HCT-116; 41.2 µM (inactive) in the assay with K562. In addition, the GI50 in the assay with CCRF-CEM is 57.7 µM (inactive); with IGROV-1, 24.2 µM (inactive); in the assay with RXF 393, 57.7 µM (inactive).
For the compound `CC1=C(CO)C(=O)OC(C(C)C2CCC3C4CC5OC56C(O)C(N5CC5)=CC(=O)C6(C)C4CCC23C)C1` (configuration not stated), the GI50 with OVCAR-8 is 2.2 µM (inactive); in the assay on HOP-92, 5.33 µM (inactive); with A498, 2.11 µM (inactive); with SK-MEL-2 it was 5.73 µM (inactive); in the assay with SR, 2.77 µM (inactive); in the assay with HCT-15, 3.46 µM. The GI50 in the assay on HL-60 is 1.61 µM (inactive); with NCI-H23, 2.35 µM (inactive); in the assay on SF-268, 3.81 µM (inactive); in the assay with HCT-116, 3.02 µM (inactive); with K562, 3.59 µM (inactive); in the assay on CCRF-CEM, 2.61 µM (inactive). Besides, the results for the GI50 in the assay with IGROV-1 and in the assay on RXF 393 were 3.47 µM (inactive) and 12 µM (inactive), respectively.
As for `O=C(O)c1ccccc1/N=C/c1ccc(N(CCCl)CCCl)cc1`, the GI50 in the assay with OVCAR-8 is > 100 µM (inactive); in the assay on HOP-92, > 100 µM (inactive); in the assay on COLO 205, > 100 µM (inactive); with A498, > 40.5 µM (inactive); in the assay with SK-MEL-2, > 100 µM (inactive); in the assay on HCT-15, > 100 µM. Further, the GI50 with HL-60 is 29.4 µM (inactive); with NCI-H23 it was 47.6 µM (inactive); in the assay on SF-268 it was > 72.4 µM (inactive); with HCT-116, > 100 µM (inactive); in the assay on K562, > 100 µM (inactive); in the assay on CCRF-CEM, > 80.7 µM (inactive). Further, the GI50 is > 100 µM (inactive) in the assay on NCI/ADR-RES, > 100 µM (inactive) with IGROV-1 and > 48.3 µM (inactive) with RXF 393.
